pEC50: −log10 of the molar value. Where a name gives a salt, the structure may show the parent alone.

The assay addresses T1, human PPAR γ 2 (Homo sapiens, UniProt P37231).
T1 construct: expressed in transfected cells; host or cells: human osteosarcoma MG63, transiently co-transfected with pSG5-hPPARg and the reporter pGV-P2-PPRE
T1 sequence (P37231 1-505): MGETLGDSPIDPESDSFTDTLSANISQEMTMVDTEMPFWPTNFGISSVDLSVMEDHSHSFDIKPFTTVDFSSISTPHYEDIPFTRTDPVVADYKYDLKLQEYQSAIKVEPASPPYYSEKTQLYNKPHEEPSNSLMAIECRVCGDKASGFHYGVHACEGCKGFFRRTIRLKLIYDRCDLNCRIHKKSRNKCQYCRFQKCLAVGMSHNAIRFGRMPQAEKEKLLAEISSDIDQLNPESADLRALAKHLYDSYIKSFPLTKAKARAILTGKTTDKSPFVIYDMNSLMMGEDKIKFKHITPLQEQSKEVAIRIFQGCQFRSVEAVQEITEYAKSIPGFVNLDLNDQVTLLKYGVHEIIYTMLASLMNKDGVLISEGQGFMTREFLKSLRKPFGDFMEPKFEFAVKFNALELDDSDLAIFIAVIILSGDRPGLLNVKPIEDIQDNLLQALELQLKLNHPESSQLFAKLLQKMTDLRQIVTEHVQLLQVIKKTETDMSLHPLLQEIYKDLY
Description: PPAR γ transcriptional activity, luciferase reporter, test compound alone. The class given is cell-based. Particulars: concentration indicating Emax/2, MG63 cells transfected with pSG5-hPPARg and pGV-P2-PPRE, 24 hr. In outline: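 Human osteosarcoma MG63 cells transiently co-transfected with human PPARγ2 expression plasmid and PPRE-luciferase reporter (rat acyl-CoA oxidase promoter element), then exposed 24 h to test compound alone. Luciferase luminescence gave dose-response curves; EC50 is the concentration giving half of the compound's maximal activity (Emax).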
Background: In a reporter assay the amount or activity of a reporter protein is the signal.
A word on the pEC50: it is the EC50 on a negative log10 scale, so that one unit is a factor of ten. Read a high pEC50 as a small EC50. Compound `Nc1ccc(NC(=O)c2cc([N+](=O)[O-])ccc2Cl)cc1` [Example 58, N-(4-Aminophenyl)-(2-chloro-5-nitrophenyl)carboxamide mono-hydrochloride] showed a negative-log EC50 (pEC50) of 7.70.

Consider `Cc1cnc(NC(=O)c2cc([N+](=O)[O-])ccc2Cl)s1` [Example 4, N-(5-Methylthiazol-2-yl)-(2-chloro-5-nitrophenyl)carboxamide], for which the pEC50 was 7.82.

In turn, `O=C(Nc1cccc2cccnc12)c1cc([N+](=O)[O-])ccc1Cl` [Example 57, N-(8-Quinolinyl)-(2-chloro-5-nitrophenyl)carboxamide] had a pEC50 of 6.59.

On to `CC(C)(C)c1cc(NC(=O)c2cc([N+](=O)[O-])ccc2Cl)cc(C(C)(C)C)c1O` [Example 29, N-(3,5-Di-t-butyl-4-hydroxyphenyl)-(2-chloro-5-nitrophenyl)carboxamide], for which the pEC50 is 8.36.

For `O=C(Nc1cccc(-c2ccccc2)c1)c1cc([N+](=O)[O-])ccc1Cl` [Example 5, N-(3-Phenylphenyl)-(2-chloro-5-nitrophenyl)carboxamide], the pEC50 was 6.40. Against the preceding compound, the pEC50 is 1.96 log units lower.

`Cn1c(NC(=O)c2cc([N+](=O)[O-])ccc2Cl)nc2ccccc21` [Example 82, N-(1-Methylbenzimidazol-2-yl)-(2-chloro-5-nitrophenyl)carboxamide] had a pEC50 of 6.59.

For `O=C(Nc1ccc(S(=O)(=O)Nc2nccs2)cc1)c1cc([N+](=O)[O-])ccc1Cl` [Example 96, N-[4-(Thiazol-2-yl)aminosulfonyl]phenyl-(2-chloro-5-nitrophenyl)carboxamide], the pEC50 is 7.66.

`Cc1ccc(NC(=O)c2cc([N+](=O)[O-])ccc2Cl)nc1` [Example 52, N-(5-Methylpyridin-2-yl)-(2-chloro-5-nitrophenyl)carboxamide] gave a negative logarithm of the EC50 (pEC50) of 8.25.

`O=C(Nc1ccc(NC(=S)Nc2cccnc2)cc1)c1cc([N+](=O)[O-])ccc1Cl` [Example 257, N-[4-[(Pyridin-3-yl)aminothiocarbonylamino]phenyl]-(2-chloro-5-nitrophenyl)carboxamide] gave a pEC50 of 6.92.

Consider `CCN(c1ccc(NS(=O)(=O)c2ccc(NC(=O)c3cc([N+](=O)[O-])ccc3Cl)cc2)cc1)C(C)C` [Example 232, N-[[4-[4-(N-Ethyl-N-isopropylamino)phenyl]aminosulfonyl]phenyl]-(2-chloro-5-nitrophenyl)carboxamide], for which the pEC50 is 6.21.

On to `COC(=O)c1sccc1NC(=O)c1cc([N+](=O)[O-])ccc1Cl` [Example 66, N-(2-Methoxycarbonylthiophen-3-yl)-(2-chloro-5-nitrophenyl)carboxamide], for which the pEC50 is 6.92. This pEC50 is 0.71 log units higher than that of the compound before.

On to `O=C(Nc1ccc(NC(=O)c2cc([N+](=O)[O-])ccc2Cl)cc1)c1ccccc1` [Example 119, N-(4-Benzoylaminophenyl)-(2-chloro-5-nitrophenyl)carboxamide], for which the pEC50 was 7.68.

Compound `O=C(Nc1ccc(S(=O)(=O)Nc2ccc(Cl)nn2)cc1)c1cc([N+](=O)[O-])ccc1Cl` [Example 102, N-[4-[(6-Chloropyridazin-3-yl)aminosulfonyl]phenyl]-(2-chloro-5-nitrophenyl)carboxamide] showed a pEC50 of 7.37.

The compound `O=C(Nc1ccc(NC(=O)c2cc([N+](=O)[O-])ccc2Cl)cc1)c1ccncc1` [Example 125, N-[4-(Pyridin-4-ylcarbonylamino)phenyl]-(2-chloro-5-nitrophenyl)carboxamide] gave a pEC50 of 7.72.

`O=C(Nc1nc(-c2cccnc2)cs1)c1cc([N+](=O)[O-])ccc1Cl` [Example 37, N-[4-(3-Pyridyl)thiazol-2-yl)-(2-chloro-5-nitrophenyl)carboxamide] showed a pEC50 of 6.29. This pEC50 is 1.43 log units lower than that of the compound before.

In turn, “N-[4-(Pyrrolidinylsulfonyl)phenyl]-(2-chloro-5-nitrophenyl)carboxamide [Example 152]” had a pEC50 of 8.06.

In turn, `O=C(Nc1ccc(-c2ccccc2)cc1)c1cc([N+](=O)[O-])ccc1Cl` [Example 2, N-(4-Phenylphenyl)-(2-chloro-5-nitrophenyl)carboxamide] had a pEC50 of 6.08.

Source of the values: patent publication US20030134859A1 (SANKYO COMPANY, LIMITED, priority 2000, published 2003).
